Measurements as given in patent US20050175535A1 (CV Therapeutics, Inc., priority 2000, published 2005).

Legend:
[1] = Coronary and peripheral artery blood flow velocity, HR and MAP in anesthetized closed-chest dogs; assay type: in vivo; design: APV: unit not given here; conditions: for APV / MAP / HR: CVT-3146 (1 ug/kg)
Description: Mongrel dogs (either sex, 17-21 kg; n=6) were obtained from a local vendor (Barton, Oxford, N.J.). Blood flow velocity in the coronary and cranial circumflex arteries was measured using Doppler transducer-tipped guide wires 0.014″ in diameter (FloWire®, model 1400J) purchased from Cardiometrics, Inc., Mountain View, Calif. For the positioning of the FloWire, a Judkins left coronary guiding catheter (JL3.5, 8F; Cordis) was used. Vascular arterial angiography was performed using Hypaque-76 contrast fluid (Bracco Diagnostics, Inc., Princeton, N.J.; Lot #9H28899) and a mobile fluoroscopic unit (Philips, BV 29). Systemic arterial blood pressure was measured using an electronic transducer-tipped catheter (Millar).
Following the administration of heparin (20 U/kg+100 U/hr), the pressure transducer-tipped catheter was introduced through the left femoral artery and positioned in the descending aorta. The Doppler FloWire was introduced through the right femoral artery. A peripheral vein was cannulated for the administration of all drugs. […] The sequence of positioning of the Doppler catheter was reversed in consecutive experiments. […] All parameters were allowed to recover (>30 min) to their respective baseline values between two consecutive drug administrations. […] The effect of adenosine on both coronary and peripheral artery APV was studied in five of the six dogs.
The following parameters were monitored and recorded: Average peak coronary and peripheral artery blood flow velocity (APV), mean arterial blood pressure (MAP) (mmHg), and sinus cycle length (SCL; msec). Differences in measure parameters were tested for statistical significance using ANOVA and Student's t test corrected for multiple measurements. Data are expressed as the mean±SEM.

[2] = Coronary blood flow and hemodynamics in conscious dogs; assay type: in vivo
Description: Ten mongrel dogs (weighing 23-27 kg) were premedicated with Acepromazine (0.3 mg/kg im) and anesthetized with sodium pentobarbital (25 mg/kg) and then intubated and ventilated with room air. A thoracotomy was performed in the left fifth intercostal space using sterile surgical techniques. A Tygon catheter (Cardiovascular Instruments, Inc.) was placed in the descending thoracic aorta for the measurements of blood pressure. A solid-state pressure gauge (P6.5, Konisberg Instrument, Inc) was placed in the apex of the left ventricle for the measurement of the left ventricular systolic pressure (LVSP) and calculation of first derivative of left ventricular pressure (LV dP/dt). A Doppler transducer (Craig Hartley) was placed on the left circumflex coronary artery for measurement of CBF. An hydraulic coronary occluder (In Vivo Metric, Inc) was implanted in 4 dogs around the left circumflex coronary artery. The chest was closed in layers and the catheters and wires were run subcutaneously and exited in the interscapular area. The dogs were allowed 10 to 14 days to recover fully from the surgery and were trained to lie on a laboratory table. The protocols were approved by the Institutional Animal Care and Use Committee of New York Medical College and conform to the “Guiding Principles for the use and Care of Laboratory Animals” of the National Institute of Health and the American Physiology Society.
Arterial pressure was measured by connecting the previously implanted catheter to a strain-gauge transducer (P231D, Statham) and mean arterial pressure (MAP) was derived using 2-Hz low-pass filter. […] Left circumflex CBF was measured using a pulsed Doppler flowmeter (System 6, Triton technology), and mean CBF was derived using a 2-Hz low-pass filter. Mean CR was calculated as the quotient of MAP and CBF. Heart rate was monitored from the pressure pulse interval using a cardiotachometer (Beckman Instruments). The lead-2 of the electrocardiogram was recorded during the experiments in order to examine the alterations in the AV nodal conduction (PR interval). All signals were recorded on a direct-writing oscillograph (Gould 2800).
Hemodynamics were measured before, during and after each dose. Following each dose hemodynamics were allowed to return to baseline before the administration of the next dose. Changes in heart rate, blood pressure, CBF, and ECG were recorded.
Hemodynamic results are expressed as mean±SEM. […] Because no statistical differences were found among the baseline values between each dose for each parameter measure, the first baseline registered during each experiment was used as the control value.

CNC(=O)c1cnn(-c2nc(N)c3ncn(C4O[C@@H](CO)[C@H](O)[C@@H]4O)c3n2)c1 (stereo partly drawn) [CVT-3146]
time for all parameters to return to baseline post injection ([1]; CVT-3146 1 μg/kg, adenosine 200 or 300 μg/kg iv bolus, anesthetized dogs): ≤ 5 min
APV ([1]; Coronary, time 1′, Baseline 49 ± 7): 100 ± 12
MAP ([1]; Coronary, time 1′, Baseline 128 ± 7): 112 ± 7 mmHg
HR ([1]; Coronary, time 1′, Baseline 171 ± 8): 186 ± 7
APV ([1]; Coronary, time 1.5′, Baseline 49 ± 7): 97 ± 11
MAP ([1]; Coronary, time 1.5′, Baseline 128 ± 7): 110 ± 7 mmHg
HR ([1]; Coronary, time 1.5′, Baseline 171 ± 8): 186 ± 7
APV ([1]; Coronary, time 2′, Baseline 49 ± 7): 88 ± 11
MAP ([1]; Coronary, time 2′, Baseline 128 ± 7): 110 ± 7 mmHg
HR ([1]; Coronary, time 2′, Baseline 171 ± 8): 185 ± 7
APV ([1]; Coronary, time 3′, Baseline 49 ± 7): 81 ± 11
MAP ([1]; Coronary, time 3′, Baseline 128 ± 7): 110 ± 6 mmHg
HR ([1]; Coronary, time 3′, Baseline 171 ± 8): 185 ± 7
APV ([1]; Coronary, time 4′, Baseline 49 ± 7): 75 ± 11
MAP ([1]; Coronary, time 4′, Baseline 128 ± 7): 110 ± 6 mmHg
HR ([1]; Coronary, time 4′, Baseline 171 ± 8): 183 ± 8
APV ([1]; Coronary, time 5′, Baseline 49 ± 7): 72 ± 11
MAP ([1]; Coronary, time 5′, Baseline 128 ± 7): 112 ± 6 mmHg
HR ([1]; Coronary, time 5′, Baseline 171 ± 8): 183 ± 8
APV ([1]; Coronary, time 6′, Baseline 49 ± 7): 65 ± 11
MAP ([1]; Coronary, time 6′, Baseline 128 ± 7): 113 ± 6 mmHg
HR ([1]; Coronary, time 6′, Baseline 171 ± 8): 182 ± 8
APV ([1]; Coronary, time 7′, Baseline 49 ± 7): 63 ± 12
MAP ([1]; Coronary, time 7′, Baseline 128 ± 7): 115 ± 6 mmHg
HR ([1]; Coronary, time 7′, Baseline 171 ± 8): 181 ± 8
APV ([1]; Coronary, time 8′, Baseline 49 ± 7): 55 ± 11
MAP ([1]; Coronary, time 8′, Baseline 128 ± 7): 117 ± 6 mmHg
HR ([1]; Coronary, time 8′, Baseline 171 ± 8): 180 ± 8
APV ([1]; Coronary, time 9′, Baseline 49 ± 7): 55 ± 11
MAP ([1]; Coronary, time 9′, Baseline 128 ± 7): 119 ± 6 mmHg
HR ([1]; Coronary, time 9′, Baseline 171 ± 8): 177 ± 9
APV ([1]; Coronary, time 10′, Baseline 49 ± 7): 53 ± 11
MAP ([1]; Coronary, time 10′, Baseline 128 ± 7): 120 ± 6 mmHg
HR ([1]; Coronary, time 10′, Baseline 171 ± 8): 176 ± 9
APV ([1]; Coronary, time 10″, Baseline 49 ± 7): 84 ± 4
HR ([1]; Coronary, time 10″, Baseline 171 ± 8): 177 ± 8
APV ([1]; Coronary, time 20″, Baseline 49 ± 7): 106 ± 8
MAP ([1]; Coronary, time 20″, Baseline 128 ± 7): 116 ± 9 mmHg
HR ([1]; Coronary, time 20″, Baseline 171 ± 8): 186 ± 9
APV ([1]; Coronary, time 30″, Baseline 49 ± 7): 109 ± 10
MAP ([1]; Coronary, time 30″, Baseline 128 ± 7): 117 ± 7 mmHg
HR ([1]; Coronary, time 30″, Baseline 171 ± 8): 188 ± 7
APV ([1]; Peripheral, time 1′, Baseline 34 ± 8): 42 ± 4
MAP ([1]; Peripheral, time 1′, Baseline 116 ± 8): 102 ± 6 mmHg
HR ([1]; Peripheral, time 1′, Baseline 162 ± 9): 182 ± 7
APV ([1]; Peripheral, time 1.5′, Baseline 34 ± 8): 42 ± 4
MAP ([1]; Peripheral, time 1.5′, Baseline 116 ± 8): 99 ± 7 mmHg
HR ([1]; Peripheral, time 1.5′, Baseline 162 ± 9): 184 ± 7
APV ([1]; Peripheral, time 2′, Baseline 34 ± 8): 40 ± 4
MAP ([1]; Peripheral, time 2′, Baseline 116 ± 8): 98 ± 7 mmHg
HR ([1]; Peripheral, time 2′, Baseline 162 ± 9): 187 ± 8
APV ([1]; Peripheral, time 3′, Baseline 34 ± 8): 40 ± 4
MAP ([1]; Peripheral, time 3′, Baseline 116 ± 8): 97 ± 7 mmHg
HR ([1]; Peripheral, time 3′, Baseline 162 ± 9): 187 ± 8
APV ([1]; Peripheral, time 4′, Baseline 34 ± 8): 39 ± 4
MAP ([1]; Peripheral, time 4′, Baseline 116 ± 8): 100 ± 6 mmHg
HR ([1]; Peripheral, time 4′, Baseline 162 ± 9): 186 ± 8
APV ([1]; Peripheral, time 5′, Baseline 34 ± 8): 37 ± 5
MAP ([1]; Peripheral, time 5′, Baseline 116 ± 8): 101 ± 6 mmHg
HR ([1]; Peripheral, time 5′, Baseline 162 ± 9): 185 ± 8
APV ([1]; Peripheral, time 10″, Baseline 34 ± 8): 34 ± 4
MAP ([1]; Peripheral, time 10″, Baseline 116 ± 8): 114 ± 9 mmHg
HR ([1]; Peripheral, time 10″, Baseline 162 ± 9): 167 ± 6
APV ([1]; Peripheral, time 20″, Baseline 34 ± 8): 38 ± 4
MAP ([1]; Peripheral, time 20″, Baseline 116 ± 8): 107 ± 8 mmHg
HR ([1]; Peripheral, time 20″, Baseline 162 ± 9): 177 ± 7
APV ([1]; Peripheral, time 30″, Baseline 34 ± 8): 41 ± 4
MAP ([1]; Peripheral, time 30″, Baseline 116 ± 8): 111 ± 6 mmHg
HR ([1]; Peripheral, time 30″, Baseline 162 ± 9): 183 ± 8
maximal decrease in CR ([2]; 2.5 μg/kg iv, conscious dogs): 73±2%
increase in dP/dt ([2]; 2.5 μg/kg, conscious dogs): 39±7%
maximal decrease in CR ([2]; 5 μg/kg iv, conscious dogs): 75±2%
ED50 ([2]; Canis lupus familiaris, IV bolus, conscious dogs, read-out: ED50, increase in mean CBF): 0.34 ± 0.08 µg/kg
maximal increase in mean CBF from baseline ([2]; IV bolus, conscious dogs, baseline 45±3 ml/min): 154 ± 16 mL/min
changes in LVSP ([2]; increasing doses, conscious dogs (data not shown)): did not cause significant changes in LVSP
